Columns and labels:
[1] = test system: Melon seeds (Rochet Panal - Fitó); assay: Promotion of radicle growth evaluation in melon seeds; format: in vivo; settings: seeds bathed 1 h, 5 d at 25 °C in the dark; each analog at mixture concentration (7.35 µM); Figure 5A bottom
Procedure: Melon seeds (Rochet Panal - Fitó) were surface sterilized with 0.1% sodium hypochlorite and washed twice with distilled water. Seed treatment with the purified variants was performed by bathing the seeds for 1 h at room temperature. The analog concentrations were set to the physiological concentrations obtained from previous calibrations. In addition, a second concentration was assayed as if each analog was the only one produced to reach the same concentration as that of the mixture of each lipopeptide family (Table S3). Since each lipopeptide fraction was reconstituted in methanol, water-treated seeds with the highest concentration of methanol used for lipopeptide treatment were used as control. The methanol concentration ranged from 0.004 to 0.025% for iturins, 0.009 to 0.067% for fengycins and 0.018 to 0.050% for surfactins. The seeds were placed in Petri dishes with moist filter paper and maintained in growth chambers at 25 °C for 5 d under dark conditions. The radicle growth-promoting effects were analyzed on the basis of the radicle areas measured 5 days after seed treatment using Fiji software.[28]

B. cinerea = assay: Antifungal activity assay (fungal growth, OD600); format: cell-based, Botrytis cinerea; settings: 24 h, 25 °C
Procedure: B. cinerea spores were harvested from sporulated plates with distilled water and filtered through a […] pore membrane to avoid mycelial contamination. 96-well plates containing 100 μL of PDB with 100 spores per well were used, and the corresponding analog concentrations were analyzed for antifungal activity. H2O2 (10 mM) was used as a positive control to induce fungal death. For this experiment, methanol concentrations used for lipopeptide treatment ranged from 2 to 6% for iturins, 0.08 to 0.5% for fengycins and 0.2 to 4% for surfactins. The highest methanol concentration used for each condition was added to the control. The plates were incubated for 24 h with agitation (150 rpm) at 25 °C. After incubation, the OD600 values of the inoculated plates were measured in a plate reader (FLUOstar Omega reader, BMG LabTech) to evaluate fungal growth within the treatments.

B. velezensis UMAF6639 [2] = assay: Lipopeptide analog bacterial toxicity (growth dynamics, OD600); format: cell-based, Bacillus velezensis; settings: LB, 28 °C, read every 20 min, triplicate; for effect on B. velezensis UMAF6639 growth (OD600 over 24 h), iturin variants at the higher (mixture) concentration: each analog at 7.35 µM; for effect on B. velezensis UMAF6639 growth (OD600 over 24 h), iturin variants at the higher (mixture) concentration / effect on B. velezensis UMAF6639 growth (OD600 over 24 h), iturins at physiological concentration: Figure 6A-E; for effect on B. velezensis UMAF6639 growth (OD600 over 24 h), iturins at physiological concentration: mix 7.35 µM, C13 1.27, C14 2.39, C15 0.76, C16 1.96, C17 0.93 µM; for toxicity to B. velezensis UMAF6639 (OD600 over 24 h), surfactin variants at the mixture concentration: each analog at 65.83 µM; for toxicity to B. velezensis UMAF6639 (OD600 over 24 h), surfactin variants at the mixture concentration / effect on B. velezensis UMAF6639 growth (OD600 over 24 h), surfactins at physiological concentration: Figure 6K-O; for effect on B. velezensis UMAF6639 growth (OD600 over 24 h), surfactins at physiological concentration: mix 65.83 µM, C12 3.67, C13 16.93, C14 20.49, C15 21.85, C16 4.11 µM
Procedure: To analyze the toxicity of the lipopeptide variants toward B. velezensis UMAF6639, the wells of 96-well plates with 200 μL of LB medium were inoculated with 5 μL of a bacterial suspension (OD600 = 1), and every analog was added at the desired concentration.
Methanol concentrations used for lipopeptide treatment in each condition ranged from 0.005 to 4.3%, and the maximum was used as a control to confirm that was not harmful for Bacillus growth. OD600 values were measured in a plate reader (FLUOstar Omega reader, BMG LabTech) in kinetic mode with temperature control (28 °C), with measurements taken every 20 min.

B. velezensis UMAF6639 [3] = assay: Bacterial counts (CFU) of treated cultures; format: cell-based, Bacillus velezensis; settings: analogue at its physiological concentration, sampled 14 h after treatment; compared with methanol control; Figure 7A
[4] = test system: Fusarium oxysporum f. sp. radicis-lycopersici; settings: antagonizing Fusarium oxysporum f. sp. radicis-lycopersici; cited from earlier work
Source text: In another recent study, plipastatins, fengycin analogues produced by B. subtilis, were reported to interact with oil bodies (OBs) of the melon seed endosperm, accelerating lipid mobilization and resulting in plant growth promotion (PGP) and immunization.[12] […] Because fengycin B variants have the same fatty acid length, the amino acid at position 6 of the peptide moiety, which differs between fengycin A and B,[46] is important for t ...

Ser-Asn-Pro-Gln-Asn-Tyr-Asn (head to tail) [C15-iturin A, iturin A analogue with C15 fatty acid chain, iturin Fraction C, purified from B. velezensis UMAF6639]
melon seed radicle growth promotion (radicle area), iturin variants at the same concentration [1]: significantly promoted radicle growth
antifungal activity (fungal growth, OD600), iturins at physiological concentration (B. cinerea; B. cinerea 100 spores/well in PDB, 150 rpm, mix 7.35 µM, C13 1.27, C14 2.39, C15 0.76, C16 1.96, C17 0.93 µM (Table S3), Figure 4A left): failed to exhibit antifungal activity
antifungal activity (fungal growth, OD600), iturin variants at the concentration of the entire mixture (B. cinerea; each variant at 7.35 μM, B. cinerea, PDB, Figure 4A right): sole active analog
effect on B. velezensis UMAF6639 growth (OD600 over 24 h), iturin variants at the higher (mixture) concentration (B. velezensis UMAF6639 [2]): decrease in the optical density, the values remained above those of the untreated control
effect on B. velezensis UMAF6639 growth (OD600 over 24 h), iturins at physiological concentration (B. velezensis UMAF6639 [2]): considerable increase in the OD600 value
bacterial counts (CFU) of B. velezensis UMAF6639 cultures (B. velezensis UMAF6639 [3]): increased bacterial counts

Glu-Orn-Tyr-Thr-Glu-Ala/Val-Pro-Gln-Thr-Ile (lariat or depsi) [C14-fengycin B, fengycin B variant with C14 fatty acid, fengycin Fraction B]
antifungal activity (fungal growth, OD600), fengycin variants at the highest concentration tested (B. cinerea; each fraction at mixture concentration (25.60 µM), B. cinerea, PDB, Figure 4B right): weak antifungal activity
effect on B. velezensis UMAF6639 growth (OD600 over 24 h), fengycin fractions at the highest (mixture) concentration (B. velezensis UMAF6639 [2]; each fraction at 25.60 µM, Figure 6F-J): more pronounced
effect on B. velezensis UMAF6639 growth (OD600 over 24 h), fengycins at physiological (lower) concentration (B. velezensis UMAF6639 [2]; mix 25.60 µM, fractions B 3.96, C 5.44, D 2.50, E 11.21, F 2.22 µM, Figure 6F-J): slightly delayed growth

Ser-Asn-Pro-Gln-Asn-Tyr-Asn (head to tail) [C13-iturin A, iturin A analogue with C13 fatty acid chain, iturin Fraction A, purified from B. velezensis UMAF6639]
melon seed radicle growth promotion (radicle area), iturin variants at the same concentration [1]: compromised root development
effect on B. velezensis UMAF6639 growth (OD600 over 24 h), iturin variants at the higher (mixture) concentration (B. velezensis UMAF6639 [2]): harmless to Bacillus cells
effect on B. velezensis UMAF6639 growth (OD600 over 24 h), iturins at physiological concentration (B. velezensis UMAF6639 [2]): harmless to Bacillus cells

Glu-Leu/Ile-Leu-Val-Asp-Leu-Leu/Ile (lariat or depsi) [C12-surfactin, surfactin analogue with C12 fatty acid, surfactin Fraction A]
antifungal activity (fungal growth, OD600), surfactins at physiological concentration (B. cinerea; B. cinerea, PDB, mix 65.83 µM, C12 3.67, C13 16.93, C14 20.49, C15 21.85, C16 4.11 µM (Table S3), Figure 4C left): no significant antifungal activity at physiological concentrations, except for the C12 analog
toxicity to B. velezensis UMAF6639 (OD600 over 24 h), surfactin variants at the mixture concentration (B. velezensis UMAF6639 [2]): most toxic

Glu-Leu/Ile-Leu-Val-Asp-Leu-Leu/Ile (lariat or depsi) [C16-surfactin, surfactin analogue with C16 fatty acid, surfactin Fraction H]
antifungal activity (fungal growth, OD600), surfactin variants at increased concentration (B. cinerea; each analog at mixture concentration (65.83 µM), B. cinerea, PDB, Figure 4C right): comparable to that of the positive control
toxicity to B. velezensis UMAF6639 (OD600 over 24 h), surfactin variants at the mixture concentration (B. velezensis UMAF6639 [2]): most toxic
effect on B. velezensis UMAF6639 growth (OD600 over 24 h), surfactins at physiological concentration (B. velezensis UMAF6639 [2]): delayed bacterial growth

Ser-Asn-Pro-Gln-Asn-Tyr-Asn (head to tail) [C14-iturin A, iturin A analogue with C14 fatty acid chain, iturin Fraction B, purified from B. velezensis UMAF6639]
melon seed radicle growth promotion (radicle area), iturin variants at the same concentration [1]: compromised root development
effect on B. velezensis UMAF6639 growth (OD600 over 24 h), iturin variants at the higher (mixture) concentration (B. velezensis UMAF6639 [2]): bacterial growth was slightly delayed
effect on B. velezensis UMAF6639 growth (OD600 over 24 h), iturins at physiological concentration (B. velezensis UMAF6639 [2]): no difference from the control

Glu-Leu/Ile-Leu-Val-Asp-Leu-Leu/Ile (lariat or depsi) [C13-surfactin, surfactin analogue with C13 fatty acid, surfactin Fraction B]
effect on B. velezensis UMAF6639 growth (OD600 over 24 h), surfactins at physiological concentration (B. velezensis UMAF6639 [2]): considerable increase in the OD values
bacterial counts (CFU) of B. velezensis UMAF6639 cultures (B. velezensis UMAF6639 [3]): increased bacterial counts

Glu-Orn-Tyr-Thr-Glu-Ala/Val-Pro-Gln-Thr-Ile (lariat or depsi) [fengycin A, fengycin variant with Ala at position 6; literature MIC comparison]
minimal inhibitory concentration [4]: notably greater than that of fengycin B

Ser-Asn-Pro-Gln-Asn-Tyr-Asn (head to tail) [C16-iturin A, iturin A analogue with C16 fatty acid chain, iturin Fraction D, purified from B. velezensis UMAF6639]
melon seed radicle growth promotion (radicle area), iturin variants at the same concentration [1]: significantly promoted radicle growth
effect on B. velezensis UMAF6639 growth (OD600 over 24 h), iturin variants at the higher (mixture) concentration (B. velezensis UMAF6639 [2]): bacterial growth was slightly delayed
effect on B. velezensis UMAF6639 growth (OD600 over 24 h), iturins at physiological concentration (B. velezensis UMAF6639 [2]): no difference from the control

Ser-Asn-Pro-Gln-Asn-Tyr-Asn (head to tail) [C17-iturin A, iturin A analogue with C17 fatty acid chain, iturin Fraction E, purified from B. velezensis UMAF6639]
melon seed radicle growth promotion (radicle area), iturin variants at the same concentration [1]: slightly reduced the root area
effect on B. velezensis UMAF6639 growth (OD600 over 24 h), iturin variants at the higher (mixture) concentration (B. velezensis UMAF6639 [2]): completely arrested B. velezensis growth

Glu-Leu/Ile-Leu-Val-Asp-Leu-Leu/Ile (lariat or depsi) [C15-surfactin, surfactin analogue with C15 fatty acid, surfactin Fractions E, F and G]
effect on B. velezensis UMAF6639 growth (OD600 over 24 h), surfactins at physiological concentration (B. velezensis UMAF6639 [2]): delayed bacterial growth

— paper PMC11741111, “Diversification of Lipopeptide Analogues Drives Versatility in Biological Activities” (Journal of Agricultural and Food Chemistry, 2025)
